{"source": "patent US6906035B2", "about": "“Antimicrobial cationic peptides” (priority 1995, dated 2005)", "key": {"[1]": {"tested_on": "S. epidermis", "details": "S. epidermis", "protocol": "(§1) FICs are performed by checkerboard titrations of peptides in one dimension of a microtiter plate, and of antibiotics in the other dimension, for example. The FIC is calculated by looking at the impact of one antibiotic on the MIC of the other and vice versa. […] Preferably, an FIC of less than 0.5 is obtained for synergism. As used herein, FIC can be determined as follows: [formula]\n(§2) Briefly, cells were grown overnight at 37° C. in LB-S (Luria broth without any salt supplement) and diluted one in 10,000 in the same medium to give concentrations of about 10^4 to 10^5 CFU/ml. The broth dilutions were set up in a 96 well microtiter plate by putting 200 μl of LB-S containing the initial concentration of antibiotic or compound in column 1 and 100 μl of the same medium in columns 2-12. The compounds were diluted by taking 100 μl of broth from column 1 and mixing it with column 2, resulting in a one in two dilution. This was continued to column 10. Finally, 10 μl of bacteria were pipetted into columns 1-11, and the plates incubated overnight at 37° C. The next day the plates were scored for growth in the wells, and the MIC determined."}, "[2]": {"tested_on": "P. aeruginosa", "protocol": "as §1, §2"}, "[3]": {"tested_on": "Red Blood Cells", "assay": "Red blood cell lysis", "format": "cell-based", "details": "concentration lysing Red Blood Cells"}, "[4]": {"tested_on": "X. maltophila", "assay": "organism not typed", "details": "agent alone", "protocol": "as §1\n(§3) Synergism is identified as an FIC of about ≦0.5."}, "[5]": {"tested_on": "P. aeruginosa", "assay": "microbe, parasite or virus in culture", "details": "agent alone", "protocol": "as §1, §3"}, "[6]": {"tested_on": "E. cloacae", "details": "agent alone", "protocol": "as §1, §3"}, "[7]": {"tested_on": "A. calcoaceticus", "details": "agent alone", "protocol": "as §1, §3"}, "[8]": {"tested_on": "E. coli", "assay": "MIC, broth dilution in LB-S", "format": "cell-based", "protocol": "(§4) The biological activity of the peptides can be determined by standard methods known to those of skill in the art, such as “minimal inhibitory concentration (MIC)” assay described in the present examples, whereby the lowest concentration at which no change in OD is observed for a given period of time is recorded as MIC. Alternatively, “fractional inhibitory concentration (FIC)” is also useful for determination of synergy between the peptides of the invention, or the peptides in combination with known antibiotics. FICs are performed by checkerboard titrations of peptides in one dimension of a microtiter plate, and of antibiotics in the other dimension, for example. The FIC is calculated by looking at the impact of one antibiotic on the MIC of the other and vice versa. […] Preferably, an FIC of less than 0.5 is obtained for synergism. As used herein, FIC can be determined as follows: [formula]\nas §2"}, "[9]": {"tested_on": "S. aureus", "assay": "MIC, broth dilution in LB-S", "format": "cell-based", "protocol": "as §4, §2"}, "[10]": {"tested_on": "E. cloacae", "assay": "MIC, broth dilution in LB-S", "format": "cell-based", "details": "additional MICs", "protocol": "as §4, §2"}, "[11]": {"tested_on": "A. calcoaceticus", "assay": "MIC, broth dilution in LB-S", "format": "cell-based", "details": "additional MICs", "protocol": "as §4, §2"}, "[12]": {"tested_on": "K. pneumoniae", "assay": "MIC, broth dilution in LB-S", "format": "cell-based", "details": "additional MICs", "protocol": "as §4, §2"}, "[13]": {"tested_on": "X maltophilia", "assay": "MIC, broth dilution in LB-S", "format": "cell-based", "details": "additional MICs", "protocol": "as §4, §2"}, "[14]": {"tested_on": "E. faecalis", "assay": "MIC, broth dilution in LB-S", "format": "cell-based", "details": "Table 1b, separate set of experiments", "protocol": "as §4, §2"}, "[15]": {"assay": "α helical content by CD spectra", "format": "physicochemical", "protocol": "α Helical Content of Cationic Peptides by CD Spectra\nThe α helical content of the peptides were measured in buffer, liposomes and 20% Hexafluoroisopropanol (HFPIP). The liposomes constituted of POPC alone or POPC and POPC and 30% POPG (Table 7)."}, "[16]": {"tested_on": "Candida albicans", "assay": "MIC, broth dilution in LB-S", "format": "cell-based", "protocol": "as §1, §2"}, "[17]": {"tested_on": "E. coli ML 35", "assay": "Inner membrane permeabilization (ONPG hydrolysis by β-galactosidase)", "format": "cell-based", "details": "E. coli ML 35, ONPG", "protocol": "Inner membrane permeability was determined by measurement in E. coli ML 35 of β-galactosidase activity using ONPG as a substrate. Normally ONPG cannot pass across the cytoplasmic membrane to permit hydrolysis by the cytoplasmic enzyme β-galactosidase. However, cationic peptides, by permeabilizing the inner membrane, unmasks this enzyme leading to color development as ONP is released. […] Addition of citrate increased the lag time before the peptides were able to permeabilize the membranes. When the experiments were executed in cation adjusted media (CAMHB), the lag time was increased up to 30 minutes."}, "[18]": {"tested_on": "LPS", "assay": "Dansyl polymyxin displacement assay", "format": "binding", "details": "Dansyl polymyxin displacement from LPS", "source_text": "In addition, the peptides of SEQ ID NO: 5-8 also bound effectively to LPS with high affinity based on Dansyl polymyxin displacement assays (Table 5)."}}, "note": "“And” between values parts separate entries of the source, which are not always exact repeats. Equal values may be shown once. Read-outs that look alike come from different tables or passages of the source. Ends that are not written are not given here."}
{"sequence": "KWKSFIKKLTSAAKKVVTTAKPLISS [MBI 26]", "values": [{"measurement": "MIC", "setting": "[1]; Table 1a", "result": "≧64"}, {"measurement": "MIC", "setting": "[1]; Table 1b, separate set of experiments", "result": 32, "unit": "µg/mL"}, {"measurement": "MIC", "setting": "[2]; P. aeruginasa (H 103), additional MICs", "result": 4, "unit": "µg/mL"}, {"measurement": "MIC", "setting": "[2]; P. aeruginosa (H187), Table 1a", "result": 11, "unit": "µg/mL"}, {"measurement": "MIC", "setting": "[2]; P. aeruginosa (H187), Table 1b, separate set of experiments", "result": 32, "unit": "µg/mL"}, {"measurement": "MIC P. aeruginosa (H187)", "setting": "[2]; P. aeruginosa (H187), Table 6", "result": 4.5, "unit": "µg/mL"}, {"measurement": "RBC Lysis", "setting": "[3]", "result": ">55", "unit": "µg/mL"}, {"measurement": "MIC", "setting": "[4]; X. maltophila isolate 34, strain ATCC 13637", "result": 64, "unit": "µg/mL"}, {"measurement": "MIC", "setting": "[4]; X. maltophila isolate 35, strain 6", "result": "64 µg/mL and 128 µg/mL"}, {"measurement": "MIC", "setting": "[4]; X. maltophila isolate 40, strain R1302-1", "result": "128 µg/mL and 64 µg/mL"}, {"measurement": "MIC", "setting": "[4]; X. maltophila isolate 41, strain R4230", "result": 64, "unit": "µg/mL"}, {"measurement": "MIC", "setting": "[5]; P. aeruginosa isolate 23, strain ATCC 27853", "result": "64 µg/mL and 128 µg/mL"}, {"measurement": "MIC", "setting": "[5]; P. aeruginosa isolate 24, strain 34", "result": "64 µg/mL and 128 µg/mL"}, {"measurement": "MIC", "setting": "[5]; P. aeruginosa isolate 25, strain 923-1", "result": "64 µg/mL and 128 µg/mL"}, {"measurement": "MIC", "setting": "[5]; P. aeruginosa isolate 26, strain 3101", "result": "64 µg/mL and 128 µg/mL"}, {"measurement": "MIC", "setting": "[6]; E. cloacae isolate 14, strain 938-2", "result": 64, "unit": "µg/mL"}, {"measurement": "MIC", "setting": "[6]; E. cloacae isolate 15, strain B5546", "result": "64 µg/mL and 32 µg/mL"}, {"measurement": "MIC", "setting": "[6]; E. cloacae isolate 16, strain R4148", "result": "64 µg/mL and 32 µg/mL"}, {"measurement": "MIC", "setting": "[6]; E. cloacae isolate 17, strain R4148-2", "result": "64 µg/mL and 32 µg/mL"}, {"measurement": "MIC", "setting": "[6]; E. cloacae isolate 18, strain 3077", "result": 64, "unit": "µg/mL"}, {"measurement": "MIC", "setting": "[6]; E. cloacae isolate 19, strain 3356", "result": "128 µg/mL and 64 µg/mL"}, {"measurement": "MIC", "setting": "[7]; A. calcoaceticus isolate 1, strain ATCC 23055", "result": "128 µg/mL and 64 µg/mL"}, {"measurement": "MIC", "setting": "[7]; A. calcoaceticus isolate 2, strain 23", "result": "32 µg/mL and 64 µg/mL"}, {"measurement": "MIC", "setting": "[7]; A. calcoaceticus isolate 3, strain 27", "result": "64 µg/mL and 32 µg/mL"}, {"measurement": "MIC", "setting": "[7]; A. calcoaceticus isolate 4, strain 28", "result": "16 µg/mL and 32 µg/mL"}, {"measurement": "MIC", "setting": "[7]; A. calcoaceticus isolate 5, strain 8220", "result": "64 µg/mL and 32 µg/mL"}, {"measurement": "MIC", "setting": "[7]; A. calcoaceticus isolate 6, strain 8221", "result": 64, "unit": "µg/mL"}, {"measurement": "MIC", "setting": "[7]; A. calcoaceticus isolate 7, strain 8222", "result": 64, "unit": "µg/mL"}, {"measurement": "MIC", "setting": "[7]; A. calcoaceticus isolate 8, strain 8223", "result": "64 µg/mL and 32 µg/mL"}, {"measurement": "MIC", "setting": "[7]; A. calcoaceticus isolate 9, strain 8224", "result": 64, "unit": "µg/mL"}, {"measurement": "MIC", "setting": "[7]; A. calcoaceticus isolate 10, strain 8225", "result": 64, "unit": "µg/mL"}, {"measurement": "MIC", "setting": "[7]; A. calcoaceticus isolate 11, strain 8226", "result": 64, "unit": "µg/mL"}, {"measurement": "MIC", "setting": "[8]; E. coli 0111:B4, additional MICs", "result": 2, "unit": "µg/mL"}, {"measurement": "MIC", "setting": "[8]; E. coli (UB1005), Table 1a", "result": 3, "unit": "µg/mL"}, {"measurement": "MIC", "setting": "[8]; E. coli (UB1005), Table 1b, separate set of experiments", "result": 4, "unit": "µg/mL"}, {"measurement": "MIC E. coli (UB 1005)", "setting": "[8]; E. coli (UB 1005), Table 6", "result": 1.1, "unit": "µg/mL"}, {"measurement": "MIC", "setting": "[8]; E. coli. Bort, additional MICs", "result": 2, "unit": "µg/mL"}, {"measurement": "MIC", "setting": "[9]; S. aureus (K 147), Table 1a", "result": "≧64"}, {"measurement": "MIC", "setting": "[9]; S. aureus (K147), Table 1b, separate set of experiments", "result": "≧64"}, {"measurement": "MIC", "setting": "[9]; S. aureus (SAP0017), Table 1a", "result": "≧64"}, {"measurement": "MIC", "setting": "[9]; S. aureus (SAP0017), Table 1b, separate set of experiments", "result": "≧64"}, {"measurement": "MIC", "setting": "[10]", "result": 2, "unit": "µg/mL"}, {"measurement": "MIC", "setting": "[11]", "result": 2, "unit": "µg/mL"}, {"measurement": "MIC", "setting": "[12]", "result": 8, "unit": "µg/mL"}, {"measurement": "MIC", "setting": "[13]", "result": 2, "unit": "µg/mL"}, {"measurement": "MIC", "setting": "[14]", "result": "≧64"}, {"measurement": "% α helicity", "setting": "[15]; 20% HFIP", "result": 70, "unit": "%"}, {"measurement": "% α helicity", "setting": "[15]; Buffer", "result": 0, "unit": "%"}, {"measurement": "% α helicity", "setting": "[15]; POPC Liposomes", "result": 0, "unit": "%"}, {"measurement": "% α helicity", "setting": "[15]; POPC/POPG Liposomes (30% POPG)", "result": 8, "unit": "%"}, {"measurement": "MIC", "setting": "[16]; Candida albicans (CAN105), Table 1b, separate set of experiments", "result": "≧64"}, {"measurement": "MIC", "setting": "[16]; Candida alibicans (CAN105), Table 1a", "result": "≧64"}, {"measurement": "Lag Time", "setting": "[17]", "result": 210, "unit": "s"}, {"measurement": "Rate of Hydrolysis", "setting": "[17]", "result": "0.081 ΔAU min^−1"}, {"measurement": "1max", "setting": "[18]", "result": 38, "unit": "%"}]}
